From US9994614B2, “N-methyl-D-aspartate receptor modulators and methods of making and using same” (Naurex, Inc., priority 2014, dated 2018)
Non-standard residues stand in square brackets, D forms with d. Residues, ends and D or L forms follow the SMILES beside them. Hyp = O=C(O)[C@@H]1C[C@@H](O)CN1

Columns and labels:
Type in all cases: biochemical
[1] = target: T1, NR2A (Rattus norvegicus, UniProt Q00959); experiment: [3H]MK-801 potentiation assay, NR2A
T1 construct: corresponding to 200 μg of rat cortical membrane extract protein in each reaction; from tissue; host or cells: rat telencephalon (frontal cortex and hippocampus), male Sprague-Dawley
Method: Briefly, tissue that had been stored at −80° C. was homogenized in ice cold 10 mM Tris (pH7.4 at 4° C.) using a Brinkman Polytron and then pelleted by centrifugation at 51,500 g for 20 min. The resulting supernatant was discarded and the membranes were homogenized and washed an additional 3×. Pellets were then resuspended in 5 mM EDTA/15 mM Tris (pH7.4) and incubated for 1 hr at 37° C. The membrane suspensions were then pelleted by centrifugation at 51,500 g for 20 min and stored at −80° C. overnight. The pellets were resuspended in 10 mM Tris HCl (pH7.4 at 4° C.) and homogenized and washed an additional 7 times and frozen at […] until assay.
Briefly, 300 μg of membrane extract protein were preincubated for 15 minutes at 25° C. in the presence of a saturating concentration of glutamate (50 μM) and varying concentrations of GLYX-13. […] Zero levels were determined in the absence of any glycine ligand in the presence of 30 μM dichlorokyneurenic acid. […]
The origin of aberrantly high background glycine, or bioactive plastic leachates that act like glycine, can stemrom either the water itself, the LC/MS grade water filter used, or a result of time-dependent leaching from plasticware (including storage tubes, beakers, pipette tips). […] Absolute background percentages are calculated. […]
Samples must wait at least 3 hours prior to quantitation in the scintillation counter. […]

[2] = target: T2, NR2D (Rattus norvegicus, UniProt Q62645); experiment: [3H]MK-801 potentiation assay, NR2D; details: for NR2D Activity % max glycine: relative to stimulation by 1 mM glycine and 50 μM glutamate
T2 construct: corresponding to 200 μg of rat cortical membrane extract protein in each reaction; from tissue; host or cells: rat telencephalon (frontal cortex and hippocampus), male Sprague-Dawley

[3] = target: T3, NR2B (Rattus norvegicus, UniProt Q00960); experiment: [3H]MK-801 potentiation assay, NR2B
T3 construct: corresponding to 200 μg of rat cortical membrane extract protein in each reaction; from tissue; host or cells: rat telencephalon (frontal cortex and hippocampus), male Sprague-Dawley
Method: Crude synaptic membranes were prepared using rat telencephalon (frontal cortex and hippocampus tissue) from male Sprague-Dawley rats and extensively washed using procedures modified from the Moskal et al. 2001 Review; The use of antibody engineering to create novel drugs that target N-methyl-D-aspartate receptors, Current Drug Targets, 2(3):331-45. Briefly, tissue that had been stored at −80° C. was homogenized in ice cold 10 mM Tris (pH7.4 at 4° C.) using a Brinkman Polytron and then pelleted by centrifugation at 51,500 g for 20 min. The resulting supernatant was discarded and the membranes were homogenized and washed an additional 3×. […]
Functional glycine site agonist effects were measured using an a [^3H]MK-801 potentiation assay (see Urwyler S, Floersheim P, Roy B L, Koller M. J Med Chem. (2009) 52(16):5093-107). […] Zero levels were determined in the absence of any glycine ligand in the presence of 30 μM dichlorokyneurenic acid. The % maximal [^3H]MK-801 binding was calculated relative to stimulation measured in the presence of 1 mM glycine and 50 μM glutamate. […]
For compounds with relatively low activity (e.g., GLYX-13), the identification and elimination of background glycine levels can have a significant effect on the interpretation of this assay. […] Absolute background percentages are calculated. […]

[4] = target: T4, NR2C (Rattus norvegicus, UniProt P35439+Q00961); experiment: [3H]MK-801 potentiation assay, NR2C; details: in presence of 50 μM glutamate; read-out: NR2C Potency logM (converted)
T4 construct: corresponding to 200 μg of rat cortical membrane extract protein in each reaction; from tissue; host or cells: rat telencephalon (frontal cortex and hippocampus), male Sprague-Dawley

[5] = target: T5, NR2C (Rattus norvegicus, UniProt Q00961); experiment: [3H]MK-801 potentiation assay, NR2C; details: relative to stimulation by 1 mM glycine and 50 μM glutamate
T5 construct: corresponding to 200 μg of rat cortical membrane extract protein in each reaction; from tissue; host or cells: rat telencephalon (frontal cortex and hippocampus), male Sprague-Dawley

[6] = relative to stimulation by 1 mM glycine and 50 μM glutamate

T2 sequence (Q62645 28-1323, other chains not shown): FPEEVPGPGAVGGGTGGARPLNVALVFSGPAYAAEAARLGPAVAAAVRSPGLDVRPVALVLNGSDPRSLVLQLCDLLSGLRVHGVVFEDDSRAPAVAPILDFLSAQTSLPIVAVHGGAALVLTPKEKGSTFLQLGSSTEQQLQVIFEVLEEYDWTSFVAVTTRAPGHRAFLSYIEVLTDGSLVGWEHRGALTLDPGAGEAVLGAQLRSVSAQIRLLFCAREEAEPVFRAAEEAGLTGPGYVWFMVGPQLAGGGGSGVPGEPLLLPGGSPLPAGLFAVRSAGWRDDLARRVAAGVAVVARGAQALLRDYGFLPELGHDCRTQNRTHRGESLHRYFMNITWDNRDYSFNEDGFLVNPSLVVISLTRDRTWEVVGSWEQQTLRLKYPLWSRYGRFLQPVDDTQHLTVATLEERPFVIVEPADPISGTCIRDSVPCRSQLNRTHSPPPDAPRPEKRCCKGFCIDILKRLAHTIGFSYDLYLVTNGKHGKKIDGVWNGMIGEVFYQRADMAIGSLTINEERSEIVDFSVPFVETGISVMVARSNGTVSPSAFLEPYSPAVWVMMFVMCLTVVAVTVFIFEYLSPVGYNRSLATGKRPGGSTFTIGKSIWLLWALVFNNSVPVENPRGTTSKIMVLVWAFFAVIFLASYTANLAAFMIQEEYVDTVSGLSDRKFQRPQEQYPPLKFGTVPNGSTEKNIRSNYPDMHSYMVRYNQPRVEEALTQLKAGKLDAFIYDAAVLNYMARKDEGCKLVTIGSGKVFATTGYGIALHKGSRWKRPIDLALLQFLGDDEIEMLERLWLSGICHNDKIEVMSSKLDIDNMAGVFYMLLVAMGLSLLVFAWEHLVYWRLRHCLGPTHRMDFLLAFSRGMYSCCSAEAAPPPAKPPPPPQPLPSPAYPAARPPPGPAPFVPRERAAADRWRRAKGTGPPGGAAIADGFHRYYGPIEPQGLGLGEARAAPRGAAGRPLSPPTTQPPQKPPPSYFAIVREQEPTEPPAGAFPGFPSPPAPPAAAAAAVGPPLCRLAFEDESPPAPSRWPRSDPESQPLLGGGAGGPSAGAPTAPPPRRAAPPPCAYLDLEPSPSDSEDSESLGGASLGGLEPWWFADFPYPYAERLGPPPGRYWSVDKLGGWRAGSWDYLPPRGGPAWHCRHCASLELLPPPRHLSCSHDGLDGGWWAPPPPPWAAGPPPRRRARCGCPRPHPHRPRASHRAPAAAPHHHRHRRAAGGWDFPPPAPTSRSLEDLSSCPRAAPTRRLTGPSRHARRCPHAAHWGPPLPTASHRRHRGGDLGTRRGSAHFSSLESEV
T1 sequence (Q00959 23-1464, other chains not shown): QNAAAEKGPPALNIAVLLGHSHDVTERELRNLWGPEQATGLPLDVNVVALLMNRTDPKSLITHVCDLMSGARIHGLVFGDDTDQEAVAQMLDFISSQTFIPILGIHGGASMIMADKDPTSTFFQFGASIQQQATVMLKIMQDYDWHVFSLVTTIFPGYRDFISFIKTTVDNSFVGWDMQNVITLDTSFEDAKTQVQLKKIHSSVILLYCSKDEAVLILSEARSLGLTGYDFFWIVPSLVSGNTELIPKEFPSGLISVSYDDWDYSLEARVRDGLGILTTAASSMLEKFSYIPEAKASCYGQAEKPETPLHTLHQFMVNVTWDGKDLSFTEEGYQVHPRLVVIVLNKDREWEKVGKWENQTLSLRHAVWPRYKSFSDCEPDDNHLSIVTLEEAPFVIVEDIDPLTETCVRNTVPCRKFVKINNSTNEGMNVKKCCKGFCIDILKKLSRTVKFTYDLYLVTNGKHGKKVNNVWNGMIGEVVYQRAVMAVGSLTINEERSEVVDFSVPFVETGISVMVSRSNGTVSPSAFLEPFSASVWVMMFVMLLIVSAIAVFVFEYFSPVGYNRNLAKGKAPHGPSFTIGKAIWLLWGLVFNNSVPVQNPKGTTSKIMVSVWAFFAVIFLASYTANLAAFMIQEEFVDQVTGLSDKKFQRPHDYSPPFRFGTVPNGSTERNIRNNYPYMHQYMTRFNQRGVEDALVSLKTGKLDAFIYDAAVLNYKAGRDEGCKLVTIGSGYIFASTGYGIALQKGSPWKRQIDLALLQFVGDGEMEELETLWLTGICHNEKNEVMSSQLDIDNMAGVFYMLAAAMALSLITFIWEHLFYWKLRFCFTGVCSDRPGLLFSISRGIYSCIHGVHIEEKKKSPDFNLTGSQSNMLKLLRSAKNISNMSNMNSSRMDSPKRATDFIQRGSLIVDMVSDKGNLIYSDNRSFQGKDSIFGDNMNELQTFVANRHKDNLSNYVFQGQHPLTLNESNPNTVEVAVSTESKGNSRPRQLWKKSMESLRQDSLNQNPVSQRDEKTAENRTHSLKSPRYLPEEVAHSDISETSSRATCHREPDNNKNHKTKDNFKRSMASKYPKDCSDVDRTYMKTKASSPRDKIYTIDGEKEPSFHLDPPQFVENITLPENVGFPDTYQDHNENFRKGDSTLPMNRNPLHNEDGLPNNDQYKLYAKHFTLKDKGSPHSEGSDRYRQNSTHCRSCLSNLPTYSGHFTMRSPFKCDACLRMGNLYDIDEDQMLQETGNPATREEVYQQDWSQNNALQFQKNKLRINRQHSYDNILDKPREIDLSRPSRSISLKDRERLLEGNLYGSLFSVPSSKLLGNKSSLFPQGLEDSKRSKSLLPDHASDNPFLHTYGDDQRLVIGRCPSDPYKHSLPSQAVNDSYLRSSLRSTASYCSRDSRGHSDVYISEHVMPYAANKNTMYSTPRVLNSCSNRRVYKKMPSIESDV
T3 sequence (Q00960 27-1482, other chains not shown): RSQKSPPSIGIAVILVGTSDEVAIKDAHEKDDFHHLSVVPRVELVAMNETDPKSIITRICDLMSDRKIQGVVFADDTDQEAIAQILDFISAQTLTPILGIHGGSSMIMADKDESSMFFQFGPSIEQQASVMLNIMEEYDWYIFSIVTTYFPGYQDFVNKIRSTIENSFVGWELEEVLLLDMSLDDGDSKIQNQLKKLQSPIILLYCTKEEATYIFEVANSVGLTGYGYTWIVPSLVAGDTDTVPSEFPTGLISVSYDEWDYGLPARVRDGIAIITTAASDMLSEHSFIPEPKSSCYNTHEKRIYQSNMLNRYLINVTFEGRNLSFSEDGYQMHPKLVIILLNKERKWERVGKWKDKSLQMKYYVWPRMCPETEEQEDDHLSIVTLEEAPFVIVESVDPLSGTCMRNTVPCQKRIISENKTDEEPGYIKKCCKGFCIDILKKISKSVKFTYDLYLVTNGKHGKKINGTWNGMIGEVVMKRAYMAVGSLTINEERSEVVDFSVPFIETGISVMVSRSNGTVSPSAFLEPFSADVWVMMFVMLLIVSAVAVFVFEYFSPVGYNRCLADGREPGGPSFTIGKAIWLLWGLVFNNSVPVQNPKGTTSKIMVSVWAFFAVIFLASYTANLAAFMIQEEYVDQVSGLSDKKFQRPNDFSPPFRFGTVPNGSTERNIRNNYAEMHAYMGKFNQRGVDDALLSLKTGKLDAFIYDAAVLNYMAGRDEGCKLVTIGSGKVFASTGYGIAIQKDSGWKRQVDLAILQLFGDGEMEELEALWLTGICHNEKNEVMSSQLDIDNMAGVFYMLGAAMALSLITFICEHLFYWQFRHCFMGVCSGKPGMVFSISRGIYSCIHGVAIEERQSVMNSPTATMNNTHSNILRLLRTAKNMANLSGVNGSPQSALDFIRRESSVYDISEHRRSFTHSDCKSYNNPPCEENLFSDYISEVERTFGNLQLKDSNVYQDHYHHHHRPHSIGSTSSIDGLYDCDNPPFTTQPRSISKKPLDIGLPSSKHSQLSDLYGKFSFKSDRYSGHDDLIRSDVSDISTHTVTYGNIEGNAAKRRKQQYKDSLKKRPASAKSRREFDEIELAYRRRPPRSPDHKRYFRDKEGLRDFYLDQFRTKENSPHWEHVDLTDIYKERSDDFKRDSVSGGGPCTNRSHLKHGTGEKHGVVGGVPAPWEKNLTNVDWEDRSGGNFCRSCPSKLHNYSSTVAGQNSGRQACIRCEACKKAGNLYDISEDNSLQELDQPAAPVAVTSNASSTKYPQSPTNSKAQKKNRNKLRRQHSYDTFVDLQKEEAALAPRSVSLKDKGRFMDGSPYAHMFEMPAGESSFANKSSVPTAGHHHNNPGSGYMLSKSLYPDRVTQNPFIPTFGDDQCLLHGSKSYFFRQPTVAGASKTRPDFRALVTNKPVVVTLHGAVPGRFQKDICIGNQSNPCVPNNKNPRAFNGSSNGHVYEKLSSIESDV

Structure (SMILES) | EC50 ([1]; in presence of 50 μM glutamate, read-out: NR2A Potency logM (converted)) | NR2A Activity % max glycine [1, 6] | NR2D Potency logM ([2]; in presence of 50 μM glutamate) | NR2D Activity % max glycine [2] | NR2B Potency logM ([3]; in presence of 50 μM glutamate) | NR2B Activity % max glycine [3, 6] | EC50 [4] | NR2C Activity % max glycine [5] | EC50 ([2]; in presence of 50 μM glutamate, read-out: NR2D Potency logM (converted))
CC(=O)OC1C[C@@H](C(=O)N[C@@H](Cc2c[nH]c3ccccc23)C(=O)N[C@H](C(N)=O)[C@@H](C)O)N(C(=O)[C@@H](N)[C@@H](C)O)C1 (stereo partly shown) [Compound A-3] | 17.4 pM | 58.25 % max glycine | −13.68 logM | 35.17 % max glycine |  |  |  |  | 
C[C@@H](O)[C@H](NC(=O)[C@H](Cc1c[nH]c2ccccc12)NC(=O)[C@@H]1C[C@@H](O)CN1)C(N)=O [Compound A-5] (H-[Hyp]-Trp-Thr-NH2) |  |  |  | 41.34 % max glycine | −13.86 logM | 29.53 % max glycine | 2.09 pM | 38.75 % max glycine | 2.34 pM
